The results in this text go back to patent US20090238808A1, “Process for the identification of novel enzyme interacting compounds” (priority 2005, published 2009).

The target in one test is T1, GSK3B (Mus musculus, UniProt Q9WV60).
T1 construct: from tissue; host or cells: mouse brain
Put plainly: Kinobeads elution with test compound, mouse brain lysate, MS. The class given is binding. To be noted: kinase released from kinobeads by specific elution. The text has this:
This example illustrates competitive elution of proteins bound to kinobeads with non-modified test compounds (see particularly the fourth aspect of the invention).
(§1) The kinobeads were contacted with mouse brain lysate under conditions that allow the binding of the proteins in the lysate to the ligands. The binding conditions were close to physiological by choosing suitable buffer conditions preserving the function of the proteins. After removing non-captured proteins through a gentle washing procedure the bound proteins were contacted with a test compound for protein elution.
(§2) Various test compounds (see section 2.7) were used to release bound proteins following these steps:
1. Resuspend beads with bound proteins (section 2.4) in 1×DP buffer/0.2% NP-40 as 1:3 slurry (volume/volume). 2. Transfer 20 μl the 1:3 slurry into MoBiTech columns (equivalent to 5 μl of beads). 3. Place the column into an Eppendorf tube and centrifuge it for 15 seconds at 800 rpm at 4° C. Close columns with lower lid. 4. Add 10 μl elution buffer containing 1.0 mM of the test compound (concentration ranges of 0.1 to 1.0 mM are suitable). As a control use elution buffer containing 2% DMSO or 2% DMF dependent on the solvent used for dissolving the test compound. Close column with upper lid. 5. Incubate for 30 minutes at 4° C. in an Eppendorf incubator at 700 rpm. 6. […] To harvest the eluate centrifuge 2 minutes at 2.000 rpm in table top centrifuge at room temperature. The typical volume of the eluate is approximately 15 μl. 7. Add 5 μl 4× NuPAGE SDS Sample Buffer (Invitrogen, NP0007) containing 100 mM DTT (DTT has to be added just prior to use). 8. Incubate for 30 minutes at 50° C. 9. Add 1/10 volume of 200 mg/ml iodoacetamide, incubate for 30 min at room temperature, protect from light. This reaction leads to the alkylation of cysteines for mass spectrometry. 10. Before loading samples onto the gel, centrifuge samples for 5 minutes at 15.000 rpm in order to remove precipitates. 11. […] 2.6 Preparation of Stock Solutions used in this Protocol
(§3) Search criteria varied depending on which mass spectrometer was used for the analysis.

For a further test, the target named is T2, Erk2 (Mus musculus, UniProt P63085).
T2 construct: […]; from tissue; host or cells: mouse brain
T2 sequence (P63085 whole entry): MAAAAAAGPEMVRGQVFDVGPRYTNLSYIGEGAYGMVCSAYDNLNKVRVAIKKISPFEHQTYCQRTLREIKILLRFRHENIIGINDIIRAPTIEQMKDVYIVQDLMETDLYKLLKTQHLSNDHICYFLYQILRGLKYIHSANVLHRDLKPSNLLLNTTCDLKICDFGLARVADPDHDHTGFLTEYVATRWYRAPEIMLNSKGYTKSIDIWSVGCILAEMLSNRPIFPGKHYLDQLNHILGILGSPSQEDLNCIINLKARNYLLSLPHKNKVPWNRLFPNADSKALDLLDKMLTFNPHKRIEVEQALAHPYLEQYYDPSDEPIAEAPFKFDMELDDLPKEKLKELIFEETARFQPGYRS
The test is described as above. Type of test: binding. Conditions: kinase released from kinobeads by specific elution. As for the experimental part: (§4) This example illustrates competitive elution of proteins bound to kinobeads with non-modified test compounds (see particularly the fourth aspect of the invention). The kinobeads (as described in example 1) were contacted with mouse brains lysate, bound proteins were eluted with various test compounds and the released proteins were analysed by mass spectrometry.
as §1, §2
(§5) 1. Resuspend beads with bound proteins (section 2.4) in 1×DP buffer/0.2% NP-40 as 1:3 slurry (volume/volume). 2. Transfer 20 μl the 1:3 slurry into MoBiTech columns (equivalent to 5 μl of beads). 3. Place the column into an Eppendorf tube and centrifuge it for 15 seconds at 800 rpm at 4° C. Close columns with lower lid. 4. Add 10 μl elution buffer containing 1.0 mM of the test compound (concentration ranges of 0.1 to 1.0 mM are suitable). As a control use elution buffer containing 2% DMSO or 2% DMF dependent on the solvent used for dissolving the test compound. Close column with upper lid. 5. Incubate for 30 minutes at 4° C. in an Eppendorf incubator at 700 rpm. 6. Open column (first top, then bottom), put column back into siliconized tube (SafeSeal Microcentrifuge Tubes, cat. no 11270, Sorenson BioScience, Inc.). To harvest the eluate centrifuge 2 minutes at 2.000 rpm in table top centrifuge at room temperature. The typical volume of the eluate is approximately 15 μl. 7. Add 5 μl 4× NuPAGE SDS Sample Buffer (Invitrogen, NP0007) containing 100 mM DTT (DTT has to be added just prior to use). 8. Incubate for 30 minutes at 50° C. 9. Add 1/10 volume of 200 mg/ml iodoacetamide, incubate for 30 min at room temperature, protect from light. This reaction leads to the alkylation of cysteines for mass spectrometry. 10. Before loading samples onto the gel, centrifuge samples for 5 minutes at 15.000 rpm in order to remove precipitates. 11. For protein separation apply 10 μl sample to NuPAGE 4-12% Bis-Tris gel (Invitrogen, NPO335). 2.6 Preparation of Stock Solutions used in this Protocol
as §3

Another test concerns the target T3, JNK2 (Mus musculus, UniProt Q9WTU6).
T3 construct: from tissue; host or cells: mouse brain
The description is as above. Type of test: binding. Conditions: kinase released from kinobeads by specific elution. As for the experimental part: as §4, §1, §2, §5, §3

The next test deals with T4, JNK3 (Mus musculus, UniProt Q61831).
T4 construct: from tissue; host or cells: mouse brain
T4 sequence (Q61831 whole entry): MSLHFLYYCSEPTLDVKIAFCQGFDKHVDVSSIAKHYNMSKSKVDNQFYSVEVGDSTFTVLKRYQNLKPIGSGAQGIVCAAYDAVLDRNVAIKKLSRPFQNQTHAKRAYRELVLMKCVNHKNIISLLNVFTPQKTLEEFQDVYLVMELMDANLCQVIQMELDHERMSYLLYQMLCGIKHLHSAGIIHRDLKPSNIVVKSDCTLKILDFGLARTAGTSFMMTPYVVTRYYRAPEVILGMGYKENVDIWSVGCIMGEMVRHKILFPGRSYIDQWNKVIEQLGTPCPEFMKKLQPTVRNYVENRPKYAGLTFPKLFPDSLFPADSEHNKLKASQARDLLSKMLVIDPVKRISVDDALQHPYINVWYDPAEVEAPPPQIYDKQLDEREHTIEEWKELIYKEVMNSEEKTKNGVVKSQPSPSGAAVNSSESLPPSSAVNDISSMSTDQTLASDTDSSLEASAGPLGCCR
The description is as above. The class given is binding. To be noted: kinase released from kinobeads by specific elution. As for the experimental part:
as §4, §1, §2, §5, §3

The next test has as its target CDK5 (Mus musculus, UniProt P49615). Described as above. Type of test: binding. To be noted: kinase released from kinobeads by specific elution. On the procedure: as §4, §1, §2, §5, §3
The target in a further test is T5, p38b (Mus musculus, UniProt Q9WUI1).
T5 construct: from tissue; host or cells: mouse brain
T5 sequence (Q9WUI1 whole entry): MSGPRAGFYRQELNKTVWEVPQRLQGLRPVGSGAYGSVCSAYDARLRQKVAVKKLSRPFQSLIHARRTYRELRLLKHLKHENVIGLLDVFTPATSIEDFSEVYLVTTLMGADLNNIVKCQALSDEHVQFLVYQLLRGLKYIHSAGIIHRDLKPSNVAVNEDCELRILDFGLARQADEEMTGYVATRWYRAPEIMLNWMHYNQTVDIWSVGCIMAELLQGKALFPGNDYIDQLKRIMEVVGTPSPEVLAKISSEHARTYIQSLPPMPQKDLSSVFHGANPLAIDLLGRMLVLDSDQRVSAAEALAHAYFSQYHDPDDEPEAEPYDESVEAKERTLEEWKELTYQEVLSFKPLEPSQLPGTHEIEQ
The test is described as above. Type of test: binding. To be noted: kinase released from kinobeads by specific elution. As for the experimental part: as §4, §1, §2, §5, §3

The target of a further test is T6, GSK3Aps (Mus musculus, UniProt Q2NL51).
T6 construct: from tissue; host or cells: mouse brain
T6 sequence (Q2NL51 2-490 limits assumed): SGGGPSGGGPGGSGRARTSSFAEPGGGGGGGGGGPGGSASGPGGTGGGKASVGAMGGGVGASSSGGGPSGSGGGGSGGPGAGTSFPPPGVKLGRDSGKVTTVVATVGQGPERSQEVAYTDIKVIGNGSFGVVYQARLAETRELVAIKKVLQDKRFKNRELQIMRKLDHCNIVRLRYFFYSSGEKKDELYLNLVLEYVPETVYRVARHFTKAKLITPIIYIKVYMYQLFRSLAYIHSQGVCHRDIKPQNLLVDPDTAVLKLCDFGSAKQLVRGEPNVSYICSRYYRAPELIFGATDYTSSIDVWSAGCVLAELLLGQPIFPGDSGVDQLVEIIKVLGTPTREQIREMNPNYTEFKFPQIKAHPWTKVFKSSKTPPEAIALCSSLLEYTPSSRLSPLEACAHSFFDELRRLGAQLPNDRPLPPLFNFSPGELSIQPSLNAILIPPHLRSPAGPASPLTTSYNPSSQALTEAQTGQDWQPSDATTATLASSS
Described as above. The class given is binding. Conditions: kinase released from kinobeads by specific elution. As for the experimental part:
as §4, §1, §2, §5, §3

The target of another test is T7, JNK1 (Mus musculus, UniProt Q91Y86).
T7 construct: from tissue; host or cells: mouse brain
T7 sequence (Q91Y86 whole entry): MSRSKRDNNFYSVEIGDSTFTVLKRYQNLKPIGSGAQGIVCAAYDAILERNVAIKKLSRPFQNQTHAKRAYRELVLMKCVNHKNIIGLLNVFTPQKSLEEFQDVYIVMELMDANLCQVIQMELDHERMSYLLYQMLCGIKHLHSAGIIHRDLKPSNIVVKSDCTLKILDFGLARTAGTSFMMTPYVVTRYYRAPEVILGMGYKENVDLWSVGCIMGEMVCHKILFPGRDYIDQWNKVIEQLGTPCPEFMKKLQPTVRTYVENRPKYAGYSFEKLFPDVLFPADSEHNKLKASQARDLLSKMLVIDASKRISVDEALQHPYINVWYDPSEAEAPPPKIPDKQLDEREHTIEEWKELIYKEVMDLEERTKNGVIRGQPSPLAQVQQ
Described as above. Type of test: binding. To be noted: kinase released from kinobeads by specific elution. As for the experimental part: as §4, §1, §2, §5, §3

The next test has as its target T8, p38a (Mus musculus, UniProt P47811).
T8 construct: from tissue; host or cells: mouse brain
The test is described as above. The class given is binding. To be noted: kinase released from kinobeads by specific elution. On the procedure: as §4, §1, §2, §5, §3

The next test concerns the target AAK1 (Mus musculus, UniProt Q3UHJ0). The description is as above. The class given is binding. To be noted: kinase released from kinobeads by specific elution. On the procedure: as §4, §1, §2, §5, §3
For a further test, the target named is FER (Homo sapiens, UniProt P16591). Put plainly: Biochemical kinase activity assay (Invitrogen SelectScreen). Conditions: read-out: % inhibition, FER.
The target in another test is GCK (Homo sapiens, UniProt Q12851). Described as above. Conditions: read-out: % inhibition, GCK.
Another test deals with T9, MER (Homo sapiens, UniProt Q12866).
T9 sequence (Q12866 21-999): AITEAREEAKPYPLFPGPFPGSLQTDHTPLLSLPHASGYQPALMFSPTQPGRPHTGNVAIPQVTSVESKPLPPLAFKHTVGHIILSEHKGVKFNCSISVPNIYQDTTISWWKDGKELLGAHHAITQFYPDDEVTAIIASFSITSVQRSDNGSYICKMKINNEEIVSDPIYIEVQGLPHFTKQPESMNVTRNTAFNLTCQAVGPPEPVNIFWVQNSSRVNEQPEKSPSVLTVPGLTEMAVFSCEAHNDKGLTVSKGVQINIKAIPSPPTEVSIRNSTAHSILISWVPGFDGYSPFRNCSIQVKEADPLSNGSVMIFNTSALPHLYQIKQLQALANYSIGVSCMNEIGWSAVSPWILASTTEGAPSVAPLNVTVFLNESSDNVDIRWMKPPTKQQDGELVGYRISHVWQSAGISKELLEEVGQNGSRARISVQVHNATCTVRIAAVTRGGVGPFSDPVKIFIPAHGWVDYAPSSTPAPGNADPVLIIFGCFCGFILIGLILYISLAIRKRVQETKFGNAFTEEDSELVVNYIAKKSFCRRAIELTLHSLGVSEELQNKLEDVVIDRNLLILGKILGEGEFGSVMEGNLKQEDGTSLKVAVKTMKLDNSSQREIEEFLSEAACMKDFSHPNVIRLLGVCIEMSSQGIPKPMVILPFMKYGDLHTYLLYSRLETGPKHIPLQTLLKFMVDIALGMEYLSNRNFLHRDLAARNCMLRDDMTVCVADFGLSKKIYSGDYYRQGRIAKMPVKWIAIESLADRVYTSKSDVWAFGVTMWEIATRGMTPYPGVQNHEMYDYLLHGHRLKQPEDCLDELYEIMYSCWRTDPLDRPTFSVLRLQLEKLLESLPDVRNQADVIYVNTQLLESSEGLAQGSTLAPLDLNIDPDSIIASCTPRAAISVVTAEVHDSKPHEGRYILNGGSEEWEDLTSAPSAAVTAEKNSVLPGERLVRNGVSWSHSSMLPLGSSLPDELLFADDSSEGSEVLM
The description is as above. To be noted: read-out: % inhibition, MER.

T1 sequence (Q9WV60 whole entry): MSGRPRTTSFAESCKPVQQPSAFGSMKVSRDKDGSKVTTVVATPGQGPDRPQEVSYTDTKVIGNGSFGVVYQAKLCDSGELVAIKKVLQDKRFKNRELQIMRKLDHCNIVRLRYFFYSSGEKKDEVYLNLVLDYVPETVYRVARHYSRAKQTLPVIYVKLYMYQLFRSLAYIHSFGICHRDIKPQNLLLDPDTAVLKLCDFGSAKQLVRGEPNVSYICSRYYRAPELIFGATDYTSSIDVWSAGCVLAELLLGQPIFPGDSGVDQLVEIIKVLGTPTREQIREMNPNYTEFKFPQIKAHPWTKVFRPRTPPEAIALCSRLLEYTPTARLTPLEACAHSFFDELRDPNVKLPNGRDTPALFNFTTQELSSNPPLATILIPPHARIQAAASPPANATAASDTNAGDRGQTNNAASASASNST
T3 sequence (Q9WTU6 whole entry): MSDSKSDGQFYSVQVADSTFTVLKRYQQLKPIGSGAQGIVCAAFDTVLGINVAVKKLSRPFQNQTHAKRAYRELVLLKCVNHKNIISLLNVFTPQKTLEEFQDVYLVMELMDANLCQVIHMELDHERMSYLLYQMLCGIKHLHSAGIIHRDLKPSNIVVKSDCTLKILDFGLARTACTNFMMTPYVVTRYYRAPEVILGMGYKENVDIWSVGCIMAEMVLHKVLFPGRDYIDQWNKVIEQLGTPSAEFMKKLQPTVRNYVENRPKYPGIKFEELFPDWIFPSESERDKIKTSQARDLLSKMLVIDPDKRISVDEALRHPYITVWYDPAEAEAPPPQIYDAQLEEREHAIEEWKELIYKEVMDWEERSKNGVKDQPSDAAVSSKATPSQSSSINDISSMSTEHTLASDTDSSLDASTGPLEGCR
Chain of CDK5 (P49615 whole entry): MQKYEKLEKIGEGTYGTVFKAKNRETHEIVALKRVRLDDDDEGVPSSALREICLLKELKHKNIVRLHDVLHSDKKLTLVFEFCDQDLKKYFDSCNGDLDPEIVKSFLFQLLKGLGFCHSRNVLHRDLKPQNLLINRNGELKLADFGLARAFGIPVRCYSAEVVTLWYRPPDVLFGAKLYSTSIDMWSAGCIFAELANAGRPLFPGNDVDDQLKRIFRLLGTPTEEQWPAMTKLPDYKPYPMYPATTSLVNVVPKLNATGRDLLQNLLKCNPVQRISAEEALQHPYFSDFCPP
T8 sequence (P47811 whole entry): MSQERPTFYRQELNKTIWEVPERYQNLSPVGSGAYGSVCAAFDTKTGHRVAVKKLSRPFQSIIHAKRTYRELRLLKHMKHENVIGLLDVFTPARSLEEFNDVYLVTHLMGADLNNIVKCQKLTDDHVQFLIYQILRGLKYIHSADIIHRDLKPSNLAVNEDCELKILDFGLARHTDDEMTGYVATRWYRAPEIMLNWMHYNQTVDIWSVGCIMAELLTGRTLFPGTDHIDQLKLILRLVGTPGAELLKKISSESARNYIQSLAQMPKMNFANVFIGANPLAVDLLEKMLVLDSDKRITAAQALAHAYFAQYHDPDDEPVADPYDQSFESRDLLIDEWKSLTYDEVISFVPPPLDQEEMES
Chain of AAK1 (Q3UHJ0 whole entry): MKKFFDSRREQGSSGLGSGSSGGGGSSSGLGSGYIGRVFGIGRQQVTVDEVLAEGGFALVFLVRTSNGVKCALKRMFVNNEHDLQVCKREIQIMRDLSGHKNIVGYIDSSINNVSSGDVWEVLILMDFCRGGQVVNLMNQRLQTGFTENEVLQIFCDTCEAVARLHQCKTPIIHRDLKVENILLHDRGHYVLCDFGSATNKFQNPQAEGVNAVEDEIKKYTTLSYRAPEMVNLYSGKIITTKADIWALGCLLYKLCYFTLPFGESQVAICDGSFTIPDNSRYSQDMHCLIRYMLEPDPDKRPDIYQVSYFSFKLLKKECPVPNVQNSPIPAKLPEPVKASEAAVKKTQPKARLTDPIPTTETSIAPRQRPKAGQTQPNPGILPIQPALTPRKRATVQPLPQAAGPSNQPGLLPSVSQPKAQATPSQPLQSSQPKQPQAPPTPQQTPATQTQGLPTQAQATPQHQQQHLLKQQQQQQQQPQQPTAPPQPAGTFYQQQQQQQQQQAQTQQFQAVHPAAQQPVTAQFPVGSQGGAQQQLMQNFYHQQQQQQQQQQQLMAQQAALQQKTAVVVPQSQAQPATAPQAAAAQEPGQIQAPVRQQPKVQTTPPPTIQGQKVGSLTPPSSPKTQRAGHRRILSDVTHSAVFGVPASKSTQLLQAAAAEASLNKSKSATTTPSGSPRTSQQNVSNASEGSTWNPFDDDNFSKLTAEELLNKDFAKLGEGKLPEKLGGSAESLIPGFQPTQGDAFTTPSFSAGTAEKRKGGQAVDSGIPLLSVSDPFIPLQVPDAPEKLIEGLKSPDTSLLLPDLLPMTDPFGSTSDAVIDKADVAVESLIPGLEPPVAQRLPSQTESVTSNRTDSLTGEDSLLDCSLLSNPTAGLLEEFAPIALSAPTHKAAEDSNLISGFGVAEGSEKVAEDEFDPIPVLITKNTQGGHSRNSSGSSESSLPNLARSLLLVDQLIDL

With `Oc1ccc(-c2nc(-c3ccc(F)cc3)c(-c3ccncc3)[nH]2)cc1` [CZC7098], at GSK3B, the “mass spectrometry score, GSK3B” value came out at 743 and the “number of identified peptides, GSK3B” value is given as 34. Besides, on Erk2, the “mass spectrometry score, Erk2” value is given as 506 and the “number of identified peptides, Erk2” value was found to be 20. On JNK2, the “mass spectrometry score, JNK2” value is given as 170 and the “number of identified peptides, JNK2” value was 5. Further, on JNK3, the “mass spectrometry score, JNK3” value was 542 and the “number of identified peptides, JNK3” value worked out at 30. In addition, at CDK5, the “mass spectrometry score, CDK5” value came to 166 and the “number of identified peptides, CDK5” value was determined as 4. For the same compound, at p38b, the “mass spectrometry score, p38b” value was 80 and the “number of identified peptides, p38b” value is 2. Moreover, at GSK3Aps, the “mass spectrometry score, GSK3Aps” value turned out to be 406 and the “number of identified peptides, GSK3Aps” value is on record as 8. Further, at JNK1, the “mass spectrometry score, JNK1” value is recorded as 540 and the “number of identified peptides, JNK1” value was 19. In addition, at p38a, the “mass spectrometry score, p38a” value worked out at 295 and the “number of identified peptides, p38a” value was determined as 10. Besides, on AAK1, the “mass spectrometry score, AAK1” value amounted to 198 and the “number of identified peptides, AAK1” value is reported as 4.

In general, inhibition refers to the change of the read-out against control, counted positive when it falls. In the case of `Cc1nc(Nc2ncc(C(=O)Nc3c(C)cccc3Cl)s2)cc(N2CCN(CCO)CC2)n1` [dasatinib], the inhibition at 5 µM on FER amounted to 36%; on GCK, 60%; on MER, 40%.
